The melting point is the temperature, or range, at which the solid turns liquid.

On to `CSC1=NC=CC(NN)(SC)N1` (stereo not drawn), for which the melting point is 120 to 125 °C.

In turn, `CNC(=O)C(=NOC)c1ccccc1CO` yielded a melting point of 100 to 102 °C.

For the compound `CCCOc1cc(CO)n(Cc2ccc3ccccc3n2)n1`, the melting point was 90 to 91 °C.

As to `Nc1cccc(Oc2ccc(Oc3cccc(N)c3)cc2)c1`, the melting point was in the range of 98 to 99 °C.

Compound `CCC(=O)OC(C)c1ccc(-c2ccc(C(=O)O)cc2)cc1` (single isomer, unassigned; (+)) showed a melting point of 175 to 176 °C.

Consider `CCC(=O)N1N=C(c2ccc(N)cc2)c2cc(Cl)ccc2CC1C` (stereo not drawn), for which the melting point is 118 to 120 °C.

Regarding `O=C1C(=O)c2ccc(-c3ccccc3)cc2C2=C1SCC1(CCN(CC(O)COc3ccc(Cl)cc3)CC1)O2` (stereo not drawn), the melting point was 93 to 98 °C.

In turn, `Cn1c(=O)ccc2cnc(Nc3ccccc3)nc21` registered a melting point of 244 to 247 °C.

`CCOC(=O)c1cn(-c2ccc(F)cc2)c2cc(C#C[Si](C)(C)C)ccc2c1=O` displayed a melting point of 247 to 249 °C.

With `CC(=O)N1CCOc2c(C(=O)O)cc(Cl)cc21`, the melting point lay within 76 to 77 °C.

As to `Cc1cc2ccccc2n2c(S)nnc12`, the melting point was 268 °C.

Consider `CN(C)CCCOc1ccc(C[C@H](NC(=O)[C@@H]2CCCN2S(=O)(=O)c2ccc(Cl)s2)C(=O)O)cc1`, for which the melting point was more than 200 °C.

For the compound `COc1cccc(OC)c1C(=O)NC1=NN=C(C(C)(C)C)CS1`, the melting point fell in the range of 175 to 177 °C.

Consider `CN(C(=O)c1cccs1)c1cccc(-c2nc(=O)c3ccccc3s2)n1`, for which the melting point is 192 to 193 °C.

`CC(C)(C)OC(=O)N1CCN(c2ccc(N)cc2)CC1` gave a melting point of 95 to 96 °C.

On to `CCOP(=O)(/C=C/c1cn(-c2ccccc2)nc1OCc1ccc(OCc2nc(-c3ccccc3)cn2C)c(OC)c1)OCC`, for which the melting point lay in the range of 144 to 145 °C.

`CON(C)C(=O)Nc1cccc(OC(C)C(N)=S)c1` (stereo not drawn): the melting point lay within 95 to 96 °C.

`CCOC(=O)c1sc(Oc2ccc(-n3cccc3)cc2)c2c1CCc1cnn(C)c1-2`: the melting point was 139 to 140 °C.

`ClCc1ncc(-c2ccccc2)c2ccccc12` had a melting point of 101 to 102 °C.

The compound `O=C(O)CCNC(=O)C(=Cc1cccc2ccccc12)CS` registered a melting point of 133 °C.

As for `CC(C)(C)OC(=O)N1CCc2c(n(CCOc3ccc(F)cc3)c3ccc(Cl)c(Cl)c23)CC1`, the melting point is 164 to 166 °C.

Consider `Nc1nc2c([nH]c(=O)n2Cc2cccs2)c(=O)[nH]1`, for which the melting point is more than 300 °C.

Consider `COC(=O)C1c2ccc(OCc3ccccc3)cc2CCN1CC(=O)N1CCC(c2ccccc2)CC1` (stereo not drawn), for which the melting point lay within 112 to 114 °C.

`CCCCc1nn(-c2ccc(C(F)(F)F)cn2)cc1CO` had a melting point of 110 to 111 °C.

The compound `O=C1c2ccccc2S(=O)(=O)N1CCCCN1CCN(c2cc(O)cc3c2OCCO3)CC1` registered a melting point of 179 to 181 °C.

As to `CC(C)C1Sc2c(Cl)cccc2NC1=O` (stereo not drawn), the melting point lay within 158 to 159 °C.

Compound `CC(=O)C1=CCC2C3CCC4CC(O)CCC4(C)C3CC(O)C12C` (stereo not drawn) registered a melting point of 203 to 205 °C.

Turning to `O=C(CN1CCNC1=O)N1CCC(C2c3ncc(Br)cc3CCc3cc(Cl)cc(Br)c32)CC1` (single isomer, unassigned; (+)), the melting point lay in the range of 167 to 168 °C.

`COc1ccc2c(c1OC)CC[C@H]1[C@H]2CCCN1CCc1ccccc1` (relative stereo) gave a melting point of 110 to 111 °C.

Compound `O=C(O)COc1cc(Cl)ccc1C(=O)NCc1ccc(Br)cc1` displayed a melting point of 172 to 173 °C.

`O=C(O)CCNC(=O)[C@H](Cc1ccccc1)OP(=O)(O)CCCCc1ccccc1` returned a melting point of 78.5 to 80 °C.

For the compound `CC(=O)c1c(C)[nH]c(-c2cccc(C)c2)c1N`, the melting point fell in the range of 195 to 197 °C.

`NC(=O)C[C@H](NC(=O)CCc1ccc(OCc2ccccc2)cc1OCc1ccccc1)C(=O)N1CCN(c2ccccc2)CC1` registered a melting point of 96 to 98 °C.

On to `O=C(O)C(=Cc1cccnc1)c1ccc(Cl)cc1Cl`, for which the melting point lay in the range of 208 to 211 °C.

The compound `N[C@@H](Cc1ccccc1)C(c1ccccc1)c1ccccc1` registered a melting point of 71 to 72 °C.

`O=c1c2cccc3ncc(c(=O)n1CCCCNS(=O)(=O)C(F)(F)F)n32`: the melting point is 206 to 207 °C.

The compound `CC(=O)N(CCP(=O)(O)O)Cc1cc([N+](=O)[O-])cc2[nH]c(=O)c(=O)[nH]c12` showed a melting point of 248 °C.

The compound `CCOC(=O)Nc1ncc(-c2nc3ccccc3c(=O)n2-c2cccc(OC)c2)s1` showed a melting point of 235 to 236 °C.

With `CCCOc1ccccc1-c1nc(NCCO)cc(=O)[nH]1`, the melting point lay within 164 to 166 °C.

For `Brc1ccc(-c2nc3cc(Br)ccc3s2)cc1`, the melting point was in the range of 162 to 163 °C.

`OC(c1ccc(Cl)cc1Cl)C(Oc1ccc(Cl)cc1)n1ccnc1` (stereo not drawn) returned a melting point of 108 to 110 °C.

Turning to `Cc1cnc(C(=O)c2[nH]c3ccc(Cl)cc3c2CC(=O)O)cc1C`, the melting point is 245 to 246 °C.

Take `Cn1c(=O)n(-c2cc(N)c(Cl)cc2F)c(=S)n1C`: the melting point turned out to be 208 °C.

Compound `COc1ccc(CONC(=O)c2nc(-c3ccc(Cl)c(OC)c3F)cc(N)c2Cl)cc1` had a melting point of 142 to 145 °C.

In turn, `Cc1cc(-n2ncc(=O)[nH]c2=O)cc(Cl)c1C(C)(C#N)c1ccc(Cl)cc1` (stereo not drawn) came in with a melting point of 227 °C.

For the compound `CCCCOCc1cc2c3ccccc3[nH]c(=O)n2n1`, the melting point is 170 to 172 °C.

The compound `CCS(=O)c1ccc(-c2coc3ccc(-c4nnc(C)o4)cc23)c(Cl)c1` (stereo not drawn) gave a melting point of 151 to 152 °C.

Take `O=C(N[C@H](Cc1ccc(C(F)(F)F)cc1)[C@@H](O)c1cccc2ccccc12)c1ccc(F)cc1` (racemic): the melting point fell in the range of 194 to 195 °C.

Take `O=C(Nc1ccccc1)Nc1ccc(Cl)cc1C(=O)c1ccccc1`: the melting point was 145 to 147 °C.

Take `CCOC(=O)C1=C(C)NC(C)=C(C(=O)OCC)C1c1ncccc1O`: the melting point fell in the range of 238 to 239 °C.

As for `O=C(Cc1ccccc1C1CCCC1)N[C@H]1CCN(CCc2ccccc2)C1`, the melting point lay in the range of 117 to 119 °C.

`CCC(C)Nc1ccc([N+](=O)[O-])cc1[N+](=O)[O-]` (stereo not drawn) registered a melting point of 53 to 55 °C.

`Clc1ccc(Nc2cncc(-n3cccn3)n2)cc1` returned a melting point of 155 to 157 °C.

Compound `CC(C(=O)NCc1cccs1)(c1ccccc1)c1ccccc1` came in with a melting point of 90 to 91 °C.

`CN(C)S(=O)(=O)c1cc(-n2c(=O)cc(C(F)(F)F)[nH]c2=O)ccc1Cl` registered a melting point of 281 to 283 °C.

`CC(C)(C)OC(=O)Nc1ccccc1NC(=O)c1ccc(C(=O)O)cc1` gave a melting point of 190 to 192 °C.

Compound `Clc1cc2nc3c4ccccc4c4ccccc4c3nc2cc1Cl` gave a melting point of 263 to 264 °C.

Compound `Cc1oc(-c2ccccc2)nc1Cc1cc2cc(Br)ccc2o1` had a melting point of 98 to 100 °C.

As for `O=C1NC(=O)C(c2cn3c4c(cccc24)CCC3)=C1c1ccc(OCc2ccccc2)cc1`, the melting point was 262 to 265 °C.

As for `CCN(CC)C(=O)n1cnc(S(=O)(=O)CC2CCCCC2)n1`, the melting point lay within 40 to 46 °C.

In the case of `N=C(N)NCCSCc1nccs1`, the melting point was 120 to 122 °C.

`CCOC(=O)c1nn(-c2ccc(C=O)cc2)nc1C` came in with a melting point of 97 to 99 °C.

For `O=C(O)c1ccc(NCCCCCCCCc2ccccc2)cc1`, the melting point fell in the range of 113 to 115 °C.

These data come from a melting point compilation (Tetko et al.; mined from patent text by program, amines drawn as free bases though some values may be those of a salt).
